Test system: lacrimal gland-nictitating membrane-harderian gland-enucleated rabbit dry eye models
Experiment: Rose bengal intake of cornea in rabbit dry eye models after instillation of ophthalmic solutions
Assay type: in vivo
Details: rabbit dry eye model
Procedure: An effect of farnesylacetic acid on dry eye was studied by using lacrimal gland-nictitating membrane-harderian gland-enucleated rabbit dry eye models.
Lacrimal gland-nictitating membrane-harderian gland-enucleated rabbit dry eye models were prepared by reference to the method of Girbard et al. (Invest. Ophthalmol. Vis. Sci., 28: 225-228 (1987)). Namely, a 7:1 mixture of a 5% ketamine hydrochloride injection and a 2% xylazine hydrochloride injection was injected into rabbits in an amount of 1 ml/kg to anesthetize the rabbits systemically. A 0.4% oxybuprocaine hydrochloride ophthalmic solution was instilled into the rabbits, lower lid skin was dissected in length of about 5 mm along an orbital bone, and then a lacrimal gland was enucleated from the outside of a conjunctival sac. The skin at the dissected site was sutured with 4-0 sutures, and an ofloxacin eye ointment was applied to the sutured site. Next, a harderian gland was enucleated while drawing it out with a nictitating membrane. Finally, the ofloxacin eye ointment was applied to the enucleated site.
Farnesylacetic acid ophthalmic solutions were prepared by diluting farnesylacetic acid with the following vehicle so that its concentrations were 0.75, 7.5 and 75 μM. A gefarnate ophthalmic solution was prepared by diluting gefarnate with the same vehicle so that its concentration was 7.5 mM. All the obtained ophthalmic solutions had pH of 7.4 and osmotic pressure of 1.0.
Each farnesylacetic acid ophthalmic solution (50 μl) was instilled into the lacrimal gland-nictitating membrane-harderian gland-enucleated rabbits six times per day for two weeks (four rabbits and eight eyes per group. The vehicle and gefarnate were instilled similarly as a control group and a comparative group respectively.
Effects on dry eye were evaluated by measuring rose bengal intake. A 7:1 mixture of a 5% ketamine hydrochloride injection and a 2% xylazine hydrochloride injection was injected into the rabbits in an amount of 1 ml/kg to anesthetize the rabbits systemically, then eyelids were opened with an eye speculum, and the conjunctival sacs were filled with physiological saline containing 1% rose bengal. The eyes were maintained for 10 seconds and then washed with physiological saline. A 5% pentobarbital injection was injected into the rabbits to euthanatize them, and eyeballs were enucleated. Corneal pieces were prepared with a trephine having an inner diameter of 8 mm, put into 1 ml of 2 M sodium hydroxide and allowed to stand under light resistance for one day to dissolve corneal tissues completely. Absorbance at a wavelength of 560 nm of the obtained tissue-dissolved solutions was measured with a spectrophotometer.
Rose bengal stains a portion containing no mucin layer in keratoconjunctiva. […] Accordingly, when the mucin layer decreases because of dry eye, rose bengal intake of the corneal tissues increases, and the absorbance of the tissue-dissolved solution increases.

SMILES	Effect compared with gefarnate (7.5 mM administration group) (75 μM administration group, about 1/100 of the gefarnate concentration)	Rose bengal intake compared with vehicle administration group (0.75, 7.5 and 75 μM administration groups)	Absorbance (560 nm) of corneal tissue-dissolved solution (rose bengal intake) (ophthalmic solution 0.75 μM, 50 μl instilled six times per day for two weeks)	Absorbance (560 nm) of corneal tissue-dissolved solution (rose bengal intake) (ophthalmic solution 7.5 μM, 50 μl instilled six times per day for two weeks)	Absorbance (560 nm) of corneal tissue-dissolved solution (rose bengal intake) (ophthalmic solution 75 μM, 50 μl instilled six times per day for two weeks)	Absorbance (560 nm) of corneal tissue-dissolved solution (rose bengal intake) (ophthalmic solution 7.5 mM, instilled six times per day for two weeks)
CC(C)=CCC/C(C)=C/CC/C(C)=C/CCC(=O)O [Farnesylacetic acid, farnesylacetic acid]	an effect equal to that of gefarnate	apparently less than that in the vehicle administration group	0.169	0.139	0.093	–
CC(C)=CCC/C(C)=C/CC/C(C)=C/CCC(=O)OC/C=C(\C)CCC=C(C)C [gefarnate, reference compound]	–	–	–	–	–	0.075
